Test results as given in PMC11474193, “A cub and sushi domain-containing protein with esterase-like activity confers insecticide resistance in the Indian malaria vector Anopheles stephensi” (The Journal of Biological Chemistry, 2024).

Experiments:
[1] = test system: T1, CUB and Sushi Domain-containing Insecticide Resistance (CSDIR) protein (XP_035915664.1); assay: SPR, steady-state fit; degradation by the protein also shown by UPLC; type: binding, Anopheles stephensi
T1 construct: CSDIR^913-1190 (C-terminal CUB and Sushi domains, recombinant in E. coli)

[2] = test system: T1, CUB and Sushi Domain-containing Insecticide Resistance (CSDIR) protein (XP_035915664.1); assay: SPR, immobilized CSDIR913-1190, steady-state fit; type: binding, Anopheles stephensi

Structure (SMILES) | Kd [1] | Kd [2]
CC1(C)[C@H](C(=O)O[C@H](C#N)c2cccc(Oc3ccccc3)c2)[C@@H]1C=C(Br)Br [deltamethrin] | 46.7 µM | 
CCOC(=O)CC(SP(=S)(OC)OC)C(=O)OCC (centres unmarked) [malathion] |  | 6.43 µM
